Square brackets hold non-standard residues; d marks the D form. Peptide text beside a SMILES is read from it. * marks the point of attachment. Dolaproine = CO[C@@H]([C@@H]1CCCN1)[C@@H](C)C(=O)O; Dil = CC[C@H](C)[C@H](NC)[C@@H](CC(=O)O)OC; X1 = C[C@@H](N*)[C@@H](O)c1ccccc1; NMeV = CN[C@H](C(=O)O)C(C)C
Tests used:
P-glycoprotein (P-gp) = P-glycoprotein (P-gp) (Homo sapiens, UniProt P08183); assay: Transporter systems in vitro; type: in vitro ADME
rat bone marrow = assay: Rat bone marrow micronucleus study; type: in vivo; details: aneugenic mechanism
Source text: (§1) MMAE was genotoxic in the rat bone marrow micronucleus study through an aneugenic mechanism. This effect is consistent with the pharmacological effect of MMAE as a microtubule-disrupting agent. MMAE was not mutagenic in the bacterial reverse mutation assay (Ames test) or the L5178Y mouse lymphoma forward mutation assay.

CYP3A4 = biological target: T1, CYP3A4 (Homo sapiens, UniProt P08684); assay: Metabolism in vitro; type: in vitro ADME
T1 construct: from tissue; host or cells: human subjects in vivo (endogenous enzyme)
Source text: Enfortumab vedotin-ejfv catabolism has not been studied in humans; however, it is expected to undergo catabolism to small peptides, amino acids, unconjugated MMAE, and unconjugated MMAE-related catabolites.

[1] = Population pharmacokinetic analysis in patients; type: in vivo, human
Source text: Population pharmacokinetic analysis included data from 369 patients based on three Phase 1 studies and one Phase 2 study. Enfortumab vedotin-ejfv pharmacokinetics were characterized after single and multiple doses in patients with locally advanced or metastatic urothelial carcinoma and other solid tumors.
Steady-state concentrations of ADC and MMAE were reached after 1 treatment cycle.

L5178Y mouse lymphoma = L5178Y mouse lymphoma forward mutation assay; type: cell-based
Source text: as §1

[2] = system: bacterial reverse mutation; assay: Bacterial reverse mutation assay (Ames test); type: cell-based
Source text: as §1

[3] = system: acute myeloid leukemia (AML) at relapse; details: administered alone; cited from earlier work
[4] = system: human breast cancer xenograft BT-483; assay: Efficacy in subcutaneous established human breast cancer xenograft BT-483 in SCID mice; type: in vivo; details: 5 mg/kg every four days for four doses, intravenous bolus; tumors about 100 mm^3 at start; compared to control ADC
Protocol: In this experiment, human breast cancer BT-483 cells were used to generate stock xenografts, which were maintained by serial passages in SCID mice. Stock tumors were harvested sterilely and minced into 1 mm^3 pieces. Six (6) pieces were implanted into the flank of individual SCID mice. Tumors were allowed to grow untreated until they reached an approximate volume of 100 mm^3. The Ha22-2(2,4)6.1vcMMAE and the control ADC were dosed at 5 mg/kg every four (4) days for four (4) doses by intravenous bolus injection. The amount of ADC administered was based on the individual body weight of each animal obtained immediately prior to dosing. Tumor growth was monitored using caliper measurements every 3 to 4 days. Tumor volume was calculated as Width^2×Length/2, where width is the smallest dimension and length is the largest dimension.

[5] = system: human lung cancer xenograft AG-L4; assay: Efficacy in subcutaneous established human lung cancer xenograft AG-L4 in SCID mice; type: in vivo; details: 10 mg/kg every seven days for two doses, intravenous bolus; tumors about 200 mm^3 at start; compared to control ADC
Protocol: In another experiment, patient-derived lung cancer xenograft AG-L4 was maintained by serial passages in SCID mice. Stock tumors were harvested sterilely and minced into 1 mm^3 pieces. Six (6) pieces were implanted into the flank of individual SCID mice. Tumors were allowed to grow untreated until they reached an approximate volume of 200 mm^3. The Ha22-2(2,4)6.1vcMMAE and the control ADC were dosed at 10 mg/kg every seven (7) days for two doses by intravenous bolus injection. The amount of ADC administered was based on the individual body weight of each animal obtained immediately prior to dosing. Tumor growth was monitored using caliper measurements every 3 to 4 days. Tumor volume was calculated as Width^2×Length/2, where width is the smallest dimension and length is the largest dimension.

[6] = unconjugated MMAE, after first treatment cycle of 1.25 mg/kg, Days 1, 8 and 15

Sequence of P-glycoprotein (P-gp) (P08183 whole entry): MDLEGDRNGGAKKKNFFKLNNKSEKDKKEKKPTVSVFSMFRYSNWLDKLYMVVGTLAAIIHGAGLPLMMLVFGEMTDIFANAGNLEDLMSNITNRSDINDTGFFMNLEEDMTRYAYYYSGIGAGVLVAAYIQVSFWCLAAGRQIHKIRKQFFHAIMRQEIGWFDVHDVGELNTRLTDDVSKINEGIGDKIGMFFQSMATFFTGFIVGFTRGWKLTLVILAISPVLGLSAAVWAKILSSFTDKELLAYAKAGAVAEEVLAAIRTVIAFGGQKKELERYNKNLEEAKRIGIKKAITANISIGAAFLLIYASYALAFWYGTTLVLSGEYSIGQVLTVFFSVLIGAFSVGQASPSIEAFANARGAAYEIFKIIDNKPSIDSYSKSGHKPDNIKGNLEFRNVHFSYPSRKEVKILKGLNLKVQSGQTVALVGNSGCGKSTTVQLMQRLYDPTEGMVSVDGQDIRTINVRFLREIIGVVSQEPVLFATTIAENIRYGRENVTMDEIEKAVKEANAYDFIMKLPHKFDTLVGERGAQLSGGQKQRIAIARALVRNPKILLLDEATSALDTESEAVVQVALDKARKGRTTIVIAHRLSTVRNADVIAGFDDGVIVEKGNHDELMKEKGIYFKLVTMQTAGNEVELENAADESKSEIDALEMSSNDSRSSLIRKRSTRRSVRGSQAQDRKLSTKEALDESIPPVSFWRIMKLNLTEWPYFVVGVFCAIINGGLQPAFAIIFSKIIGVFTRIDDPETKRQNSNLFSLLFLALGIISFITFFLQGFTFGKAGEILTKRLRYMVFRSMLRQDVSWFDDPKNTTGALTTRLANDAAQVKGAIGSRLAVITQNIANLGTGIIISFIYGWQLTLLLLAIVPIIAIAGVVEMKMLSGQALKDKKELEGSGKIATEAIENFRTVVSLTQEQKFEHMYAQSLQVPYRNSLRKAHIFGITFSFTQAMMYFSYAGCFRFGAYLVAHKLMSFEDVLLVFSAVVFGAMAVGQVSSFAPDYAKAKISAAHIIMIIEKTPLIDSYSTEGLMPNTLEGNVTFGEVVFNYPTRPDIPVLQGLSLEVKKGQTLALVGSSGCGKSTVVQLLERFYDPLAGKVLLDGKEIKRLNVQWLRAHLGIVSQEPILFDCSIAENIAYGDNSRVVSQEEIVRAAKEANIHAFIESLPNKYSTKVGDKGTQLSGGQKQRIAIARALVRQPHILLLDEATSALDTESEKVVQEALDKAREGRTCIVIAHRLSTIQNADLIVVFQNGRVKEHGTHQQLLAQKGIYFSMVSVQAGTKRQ
T1 sequence (P08684 whole entry): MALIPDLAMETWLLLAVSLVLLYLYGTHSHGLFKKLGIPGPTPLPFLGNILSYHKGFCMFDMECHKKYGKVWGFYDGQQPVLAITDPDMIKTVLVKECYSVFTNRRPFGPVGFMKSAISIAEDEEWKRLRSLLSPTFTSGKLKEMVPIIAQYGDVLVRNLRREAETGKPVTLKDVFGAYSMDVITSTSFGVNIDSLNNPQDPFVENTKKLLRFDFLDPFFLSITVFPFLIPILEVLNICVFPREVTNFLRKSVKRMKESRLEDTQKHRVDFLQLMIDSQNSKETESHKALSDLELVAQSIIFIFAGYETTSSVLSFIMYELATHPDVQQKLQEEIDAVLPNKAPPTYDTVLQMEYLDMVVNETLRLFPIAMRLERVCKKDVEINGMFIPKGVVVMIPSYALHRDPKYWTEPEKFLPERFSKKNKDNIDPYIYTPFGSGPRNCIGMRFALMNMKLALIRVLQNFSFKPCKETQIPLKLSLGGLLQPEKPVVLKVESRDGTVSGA

In the case of CC[C@H](C)[C@@H]([C@@H](CC(=O)N1CCC[C@H]1[C@H](OC)[C@@H](C)C(=O)N[C@H](C)[C@@H](O)c1ccccc1)OC)N(C)C(=O)[C@@H](NC(=O)[C@@H](NC)C(C)C)C(C)C [MMAE, monomethyl auristatin E] (H-[NMeV]V[Dil][Dolaproine]-X1), the P-gp inhibition (P-glycoprotein (P-gp)) is reported as “not an inhibitor”, the P-gp substrate (P-glycoprotein (P-gp)) is reported as “substrate” and the “genotoxicity in rat bone marrow micronucleus study” value (rat bone marrow) is reported as “genotoxic”. The metabolism in vitro (CYP3A4) was “primarily metabolized by CYP3A4”, the “exposure (AUC) in mild, moderate or severe renal impairment” value ([1]; 1.25 mg/kg, compared to normal renal function) was “No significant differences” and the “AUC increase in mild hepatic impairment” value ([1]; n=31, compared to normal hepatic function, population pharmacokinetics analysis) was 48%. The “accumulation following repeat administration” value ([1]; patients) was “Minimal accumulation”, the “elimination of MMAE” value ([1]; patients) was “limited by its rate of release from enfortumab vedotin-ejfv” and the “mean clearance (CL)” value ([1]; patients) was 2.7 L/h. For the same compound, the “steady-state concentrations reached after” value ([1]; patients) was 1 treatment cycle, the “time of peak MMAE concentrations after enfortumab vedotin-ejfv dosing” value ([1]; patients) was “approximately 2 days” and the elimination half-life ([1]; patients, multi-exponential declines) was 57.6 h. For the same compound, the “AUC0-28 d, Mean (±SD)” value [1, 6] was 69 (42) ng · d/mL, the “Cmax, Mean (±SD)” value [1, 6] was 4.8 (2.7) ng/mL and the “Ctrough, 0-28 d (pre-dose concentration on day 28), Mean (±SD)” value [1, 6] was 0.57 (0.58) ng/mL. The “mutagenicity in L5178Y mouse lymphoma forward mutation assay” value (L5178Y mouse lymphoma) was “not mutagenic” and the “mutagenicity in Ames test” value [2] was “not mutagenic”.
In the case of “CT-011: anti-PD-1 antibody, a humanized antibody”, the “response in acute myeloid leukemia (AML) at relapse” value [3] is listed as “failed to show response”.
For “Ha22-2(2,4)6.1-vcMMAE: 191P4D12 ADC: antibody Ha22-2(2,4)6.1 (murine hybridoma cell line-derived) conjugated to MMAE via vc linker”, the “growth of BT-483 breast tumor xenografts” value [4] was “significantly inhibited” and the “growth of AG-L4 lung cancer xenografts” value [5] was “significantly inhibited”.
